# Experimental data from patent US10864212B2, “Compositions and methods for treating retinal degradation” (University of Kentucky Research Foundation, priority 2013, dated 2020).
# “Also recorded” adds a separate entry of the source.
# Experiments:
# [1] = test system: GFP-expressing lentivirus; test: Replication of a GFP-expressing lentivirus in HeLa cells; format: cell-based; conditions: HeLa cells; FIG. 22
# Description: The present disclosure further provides the results of additional experiments in FIG. 21-FIG. 23.
# RPE degeneration = RPE degeneration in mice after sub-retinal injection of a plasmid expressing Alu RNA, systemic drug administration; format: in vivo, mouse; conditions: daily oral administration of d4T, FIG. 36
# Description: FIG. 24, top row, provides flat mounts stained for zonula occludens-1 (ZO-1; red), bottom row. Degeneration is outlined if FIG. 24 by blue arrowheads. Representative images of n=4 are shown.
# FIG. 36 and FIG. 37 include fundus photographs: top row; flat mounts stained for zonula occludens-1 (ZO-1; red), bottom row. Degeneration is outlined by blue arrowheads. Scale bars, 50 μm.
# IRAK4 = test: LPS/ATP-induced IRAK4 phosphorylation in primary human RPE cells; format: cell-based; conditions: d4T 25/100 uM, FIG. 8
# Description: Vinculin was used as the loading control in the gel of FIG. 8. Additionally, as shown, LPS and ATP activate the NLRP3 inflammasome only in combination.
# The loading control in FIG. 8 is vinculin. Furthermore, as shown, LPS and ATP activate the NLRP3 inflammasome only in combination, thus treatment with one or the other alone is useful as a control for this experiment.
# rat P2X7 receptor = biological target: T1, rat P2X7 receptor (Rattus norvegicus, UniProt Q64663); test: Patch clamp analysis of P2X7 cation channel function, HEK293 stable cell line expressing rat P2X7 receptor; format: cell-based
# T1 construct: expressed in transfected cells
# T1 sequence (Q64663 1-595): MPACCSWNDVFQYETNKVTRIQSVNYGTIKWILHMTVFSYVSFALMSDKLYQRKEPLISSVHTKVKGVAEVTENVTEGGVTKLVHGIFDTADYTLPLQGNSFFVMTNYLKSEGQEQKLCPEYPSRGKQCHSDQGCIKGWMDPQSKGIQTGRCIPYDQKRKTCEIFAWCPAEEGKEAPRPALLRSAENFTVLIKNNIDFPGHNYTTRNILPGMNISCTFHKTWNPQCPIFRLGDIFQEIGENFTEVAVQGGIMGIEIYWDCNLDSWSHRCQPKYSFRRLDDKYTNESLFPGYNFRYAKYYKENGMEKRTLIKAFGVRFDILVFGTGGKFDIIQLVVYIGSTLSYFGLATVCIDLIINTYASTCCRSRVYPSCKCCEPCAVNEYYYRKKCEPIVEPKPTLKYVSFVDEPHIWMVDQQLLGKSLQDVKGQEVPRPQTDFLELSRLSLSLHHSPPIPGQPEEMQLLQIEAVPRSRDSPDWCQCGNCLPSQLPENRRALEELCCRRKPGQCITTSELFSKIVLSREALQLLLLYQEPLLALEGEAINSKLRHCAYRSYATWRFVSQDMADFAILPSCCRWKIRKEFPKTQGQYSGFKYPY
# [2] = test system: extracellular potassium levels; test: Extracellular potassium levels after Alu RNA transfection of primary human RPE cells (pyruvate kinase assay); format: cell-based; conditions: primary human RPE cells treated with Alu RNA for 6 hours; FIG. 18
# Method: Potassium levels were determined in cell culture supernatants spectrophotometrically using a potassium-dependent pyruvate kinase assay.
# For FIG. 18, potassium levels were determined in cell culture supernatants spectrophotometrically using a potassium-dependent pyruvate kinase assay.
# human P2X7 receptor = biological target: T2, human P2X7 receptor (Homo sapiens, UniProt Q99572); test: Patch clamp analysis of P2X7 cation channel function, HEK293 stable cell line expressing human P2X7 receptor; format: cell-based
# T2 construct: expressed in transfected cells
# T2 sequence (Q99572 1-595): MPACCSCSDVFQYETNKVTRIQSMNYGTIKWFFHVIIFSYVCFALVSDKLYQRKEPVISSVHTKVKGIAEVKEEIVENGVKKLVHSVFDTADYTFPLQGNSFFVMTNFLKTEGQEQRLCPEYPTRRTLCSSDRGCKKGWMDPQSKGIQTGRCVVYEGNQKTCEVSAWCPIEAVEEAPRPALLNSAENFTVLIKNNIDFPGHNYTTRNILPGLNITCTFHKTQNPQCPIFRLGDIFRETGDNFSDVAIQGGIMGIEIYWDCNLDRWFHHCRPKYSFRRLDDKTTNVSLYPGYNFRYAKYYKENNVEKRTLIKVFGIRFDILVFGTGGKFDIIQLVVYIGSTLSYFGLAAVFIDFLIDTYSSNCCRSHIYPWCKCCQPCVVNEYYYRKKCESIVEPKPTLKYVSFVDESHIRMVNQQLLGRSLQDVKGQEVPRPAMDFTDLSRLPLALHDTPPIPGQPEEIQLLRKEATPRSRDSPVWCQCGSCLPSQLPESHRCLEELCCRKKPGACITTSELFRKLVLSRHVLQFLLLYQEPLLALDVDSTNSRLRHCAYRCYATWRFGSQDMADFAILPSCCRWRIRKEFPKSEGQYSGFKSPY
# Caspase-1 [3] = test: LPS/ATP-induced Caspase-1 activation in mouse bone marrow-derived macrophages (Western blot); format: cell-based
# Description: To produce FIG. 9, cell culture supernatants were collected after (i) no treatment, (ii) LPS treatment, or (iii) LPS/ATP treatment of mouse bone marrow-derived macrophages and run on Western blotting probing with antibodies for Caspase-1 and IL-18.
# Further, the present inventors also tested whether NRTIs blocked inflammasome activation by LPS/ATP, which is not known to signal via reverse transcriptase (Mariathasan et al., 2004; Mariathasan et al., 2006; Martinon et al., 2002).
# (§1) FIGS. 38-41 illustrate that NRTIs block LPS/ATP-induced inflammasome activation. […] Representative images of n=3-4 experiments are provided in each of FIGS. 38-41.
# IL-1 beta [4] = test: MSU-induced IL-1 beta secretion from PMA-differentiated THP-1 monocytes (ELISA); format: cell-based, human; conditions: co-administration at 25-1000 uM, FIG. 11, 12
# Description: Human THP-1 monocytes were differentiated into macrophages with PMA.
# To illustrate this, human THP-1 monocytes were differentiated into macrophages with PMA. Treatment with MSU increased IL-1 beta secretion compared to non-treated cells.
# IL-1 beta [5] = test: LPS/ATP-induced IL-1 beta activation in primary mouse bone marrow-derived macrophages (Western blot); format: cell-based; conditions: FIG. 39
# Description: To determine whether LPS/ATP-induced inflammasome activation can be inhibited without RT inhibition, the present inventors utilized thymidine kinase-deficient (Raji/TK^−) and -expressing (Raji/TK^+) cells (Balzarini et al., 1989). After addition of AZT, […], but not TK^− cells, the present inventors produced AZT-triphosphate (AZT-TP), the AZT metabolite required for RT inhibition (FIG. 40; FIG. 46, FIG. 47, FIG. 48, FIG. 49, FIG. 50).
# as §1
# Caspase-1 [6] = test: LPS/nigericin-induced Caspase-1 activation in mouse bone marrow-derived macrophages (Western blot); format: cell-based; conditions: d4T 100, 250 uM, FIG. 10
# Description: (§2) To produce FIG. 10, cell culture supernatants were collected after (i) no treatment, (ii) LPS treatment, or (iii) LPS/nigericin treatment of mouse bone marrow-derived macrophages and run on Western blotting probing with antibodies for IL-1 beta and Caspase-1.
# (§3) Cell culture supernatants were collected after (i) no treatment, (ii) LPS treatment, or (iii) LPS/nigericin treatment of mouse bone marrow-derived macrophages, and run on Western blotting probing with antibodies for IL-1 beta and Caspase-1.
# IL-1 beta [7] = test: LPS/nigericin-induced IL-1 beta maturation in mouse bone marrow-derived macrophages (Western blot); format: cell-based; conditions: d4T 100, 250 uM, FIG. 10
# Description: as §2, §3
structure (smiles),measurement,setting,value
"Cc1cn([C@H]2C=C[C@@H](CO)O2)c(=O)[nH]c1=O [d4T, 2′3′ dideoxythymidine]",Replication of a GFP-expressing lentivirus,[1],blocks replication of a GFP-expressing lentivirus
same,RPE degeneration caused by pAlu,RPE degeneration,blocked RPE degeneration; also recorded: prevented
same,IRAK4 phosphorylation induced by LPS/ATP,IRAK4,blocks
same,P2X7 cation channel function (patch clamp),rat P2X7 receptor,did not significantly modulate P2X7 cation channel function
same,Extracellular potassium levels after Alu RNA transfection,[2],reduces extracellular potassium levels
same,P2X7 cation channel function (patch clamp),human P2X7 receptor,did not significantly modulate P2X7 cation channel function
same,Caspase-1 activation (active p20 band) induced by LPS/ATP,"Caspase-1 [3]; mouse bone marrow-derived macrophages, supernatants, 100 uM, FIG. 9",inhibit
same,LPS/ATP-induced Caspase-1 maturation,"Caspase-1 [3]; primary mouse bone marrow-derived macrophages, FIG. 38",inhibited; also recorded: blocked Caspase-1
same,IL-1 beta secretion induced by MSU,IL-1 beta [4],does not prevent P2X7-independent interleukin 1-beta secretion; also recorded: did not significantly affect IL-1beta secretion
same,"IL-1 beta activation / secretion of mature IL-1 beta, LPS/ATP",IL-1 beta [5],blocks secretion of mature IL-1 beta; also recorded: blocked IL-1 beta
same,Caspase-1 activation (active p20 band) induced by nigericin,Caspase-1 [6],inhibits
same,IL-1 beta maturation (18 and 22 kDa forms) induced by nigericin,IL-1 beta [7],inhibits
